The subject of one data set is EL4. The experiment in a line: Cytotoxicity against mouse EL4 cells assessed as effect on cell viability at 1 to 10 uM measured after 72 hrs by MTT assay. The settings on record: el4, 72 h, dose 1-10 µM. The format is cell-based.
The test system of data set [1] is Mus musculus. The experiment in a line: Induction of Treg cell differentiation in DSS- induced ulcerative colitis mouse model assessed as number of Treg cells in mesenteric lymph nodes at 40 mg/kg, po administered for 10 consecutive days by flow cytometry analysis (Rvb= 7.52%). The format is functional. As to conditions: time 10 day.
In data set [2] the test system is Mus musculus. Description: Induction of Treg cell differentiation in DSS- induced ulcerative colitis mouse model assessed as increase in IL-10 mRNA level at 20 to 40 mg/kg, po administered for 10 consecutive days by Q-PCR analysis. Type of data set: functional, organism-based. The settings on record: dose 20-40 mg/kg, time 10.0 day.
The subject of data set [3] is Mus musculus. Description: Antiinflammatory activity in DSS-induced ulcerative colitis mouse model assessed as rescue of colon length shortening at 20 to 40 mg/kg, po administered for 10 consecutive days. As to conditions: dose 20-40 mg/kg, time 10.0 day. Type of data set: functional, organism-based.
Data set [4] has as its system Mus musculus. The experiment in a line: Antiinflammatory activity in DSS-induced ulcerative colitis mouse model assessed as reduction in DAI score a 20 to 40 mg/kg, po administered for 10 consecutive days. As to conditions: dose 20-40 mg/kg, time 10.0 day. The format is functional, organism-based.
For data set [5], the system named is T-cell. The experiment in a line: Induction of cell differentiation in anti-CD3/CD28 stimulated naive T-cells assessed as upregulation of Foxp3 expression at 10 uM measured after 72 hrs by Q-PCR analysis. Type of data set: functional, cell-based.
For data set [6], the system named is Mus musculus. Description: Induction of Treg cell differentiation in DSS- induced ulcerative colitis mouse model assessed as number of Treg cells in mesenteric lymph nodes at 20 mg/kg, po administered for 10 consecutive days by flow cytometry analysis (Rvb= 7.52%). The format is functional. The settings on record: time 10 day.
For data set [7], the system named is T-cell. The experiment in a line: Induction of cell differentiation in anti-CD3/CD28 stimulated naive T-cells assessed as upregulation of Foxp3 mRNA expression at 3 to 30 uM measured after 72 hrs by Q-PCR analysis. The format is functional, cell-based. The settings on record: dose 3-30 µM.
In data set [8] the test system is T-cell. Description: Induction of cell differentiation in anti-CD3/CD28 stimulated naive T-cells assessed as number of Treg cells at 3 uM measured after 72 hrs by flow cytometry analysis (reference value: 24 %). Type of data set: functional.
The test system of data set [9] is Mus musculus. The experiment in a line: Induction of Treg cell differentiation in DSS- induced ulcerative colitis mouse model assessed as number of Treg cells in spleens at 40 mg/kg, po administered for 10 consecutive days by flow cytometry analysis (Rvb= 6.49%). The format is functional. The settings on record: time 10 day.
Data set [10] relates to Mus musculus. Description: Induction of Treg cell differentiation in DSS- induced ulcerative colitis mouse model assessed as number of Treg cells in colonic lamina proprias at 40 mg/kg, po administered for 10 consecutive days by flow cytometry analysis (Rvb= 7.97%). Type of data set: functional. The settings on record: time 10 day.
The test system of data set [11] is T-cell. The experiment in a line: Induction of cell differentiation in anti-CD3/CD28 stimulated naive T-cells assessed as number of Treg cells at 10 uM measured after 72 hrs by flow cytometry analysis (reference value: 24 %). The format is functional.
Data set [12] concerns Mus musculus. Description: Induction of Treg cell differentiation in DSS- induced ulcerative colitis mouse model assessed as number of Treg cells in spleens at 20 mg/kg, po administered for 10 consecutive days by flow cytometry analysis (Rvb= 6.49%). Type of data set: functional. The settings on record: time 10 day.
Data set [13] concerns T-cell. Description: Induction of cell differentiation in anti-CD3/CD28 stimulated naive T-cells assessed as upregulation of IL-10 mRNA expression at 3 to 30 uM measured after 72 hrs by Q-PCR analysis. The format is functional, cell-based. The settings on record: dose 3-30 µM.
Data set [14] relates to T-cell. Description: Induction of cell differentiation in anti-CD3/CD28 stimulated naive T-cells assessed as upregulation of CD4+ CD25+ cell frequency at 10 uM measured after 72 hrs by flow cytometry analysis. Type of data set: functional, cell-based.
Data set [15] deals with Mus musculus. Description: Antiinflammatory activity in DSS-induced ulcerative colitis mouse model assessed as protection against inflammation of colons at 20 to 40 mg/kg, po administered for 10 consecutive days by HE staining based histopathological analysis. Type of data set: functional, organism-based. As to conditions: dose 20-40 mg/kg, time 10.0 day.
Data set [16] relates to Mus musculus. The experiment in a line: Antiinflammatory activity in DSS-induced ulcerative colitis mouse model assessed as reduction in MPO activity at 20 to 40 mg/kg, po administered for 10 consecutive days. Type of data set: functional, organism-based. The settings on record: dose 20-40 mg/kg, time 10.0 day.
The subject of data set [17] is Mus musculus. Description: Induction of Treg cell differentiation in DSS- induced ulcerative colitis mouse model assessed as increase in Foxp3 mRNA level at 20 to 40 mg/kg, po administered for 10 consecutive days by Q-PCR analysis. Type of data set: functional, organism-based. As to conditions: dose 20-40 mg/kg, time 10.0 day.
The subject of data set [18] is Mus musculus. Description: Antiinflammatory activity in DSS-induced ulcerative colitis mouse model assessed as protection against colon destruction at 20 to 40 mg/kg, po administered for 10 consecutive days by HE staining based histopathological analysis. The format is functional, organism-based. The settings on record: dose 20-40 mg/kg, time 10.0 day.
Data set [19] deals with Mus musculus. The experiment in a line: Induction of Treg cell differentiation in DSS- induced ulcerative colitis mouse model assessed as number of Treg cells in colonic lamina proprias at 20 mg/kg, po administered for 10 consecutive days by flow cytometry analysis (Rvb= 7.97%). The format is functional. As to conditions: time 10 day.
For data set [20], the system named is T-cell. Description: Induction of cell differentiation in anti-CD3/CD28 stimulated naive T-cells assessed as number of Treg cells at 30 uM measured after 72 hrs by flow cytometry analysis (reference value: 24 %). Type of data set: functional.
The test system of data set [21] is T-cell. Description: Induction of cell differentiation in anti-CD3/CD28 stimulated naive T-cells assessed as number of Treg cells at 0.2 mM measured after 72 hrs by flow cytometry analysis (reference value: 24 %). Type of data set: functional.
In data set [22] the test system is T-cell. The experiment in a line: Induction of cell differentiation in anti-CD3/CD28 stimulated naive T-cells assessed as upregulation of Foxp3 expression at 0.2 mM measured after 72 hrs by Q-PCR analysis. The format is functional, cell-based.
For data set [23], the system named is T-cell. The experiment in a line: Induction of cell differentiation in anti-CD3/CD28 stimulated naive T-cells assessed as upregulation of IL-10 mRNA expression at 0.2 mM measured after 72 hrs by Q-PCR analysis. Type of data set: functional, cell-based.
Data set [24] relates to T-cell. Description: Induction of cell differentiation in anti-CD3/CD28 stimulated naive T-cells assessed as upregulation of CD4+ CD25+ cell frequency at 0.2 mM measured after 72 hrs by flow cytometry analysis. Type of data set: functional, cell-based.
The subject of data set [25] is T-cell. The experiment in a line: Induction of cell differentiation in anti-CD3/CD28 stimulated naive T-cells assessed as upregulation of CD4+ CD25+ cell frequency at 1 uM measured after 72 hrs by flow cytometry analysis. Type of data set: functional, cell-based.
For data set [26], the system named is T-cell. Description: Induction of cell differentiation in anti-CD3/CD28 stimulated naive T-cells assessed as upregulation of Foxp3 mRNA expression at 1 uM measured after 72 hrs by Q-PCR analysis. The format is functional, cell-based.

The results in this text go back to ChEMBL document CHEMBL4823244, “Synthesis of norisoboldine derivatives and bioactivity assay for inducing the generation of regulatory T cells” (Bioorg Med Chem Lett, 2021).

Active and inactive are the calls of the source. The rule behind the calls is not given here.

For the molecule `COc1cc2c(cc1O)CC1c3c(cc(OC)c(O)c3-2)CCN1Cc1ccc(C#N)cc1` (configuration not stated), in the data set on EL4, the Activity entry is “Non-Toxic”.
For the molecule `COc1cc2c(cc1O)CC1c3c(cc(OC)c(O)c3-2)CCN1Cc1ccc(C)cc1` (configuration not stated), the Activity result in the data set on EL4 is listed as “Non-Toxic”.
Same read-out and setting: for `COc1cc2c(cc1O)CC1c3c(cc(OC)c(O)c3-2)CCN1C(=O)c1ccc(Br)cc1` (configuration not stated) the value was “Non-Toxic”.
Same read-out and setting: with `COc1cc(OC)cc(C(=O)N2CCc3cc(OC)c(O)c4c3C2Cc2cc(O)c(OC)cc2-4)c1` (configuration not stated) the entry was “Non-Toxic”.
For the molecule `COc1cc2c(cc1O)C[C@@H]1NCCc3cc(OC)c(O)c-2c31`, the Activity in the data set on Mus musculus [1] is listed as 14.89%; with Mus musculus [6], 9.8%; in the data set on T-cell [8], 24.4%; with Mus musculus [9], 7.41%; in the data set with Mus musculus [10] it was 15.87%; in the data set on T-cell [11], 31.8%. The Activity entry in the data set on EL4 was “Non-Toxic”; in the data set with Mus musculus [12], 6.58%; in the data set with Mus musculus [19] it was 12.25%; in the data set with T-cell [20] it was 44.2%. The outcome with Mus musculus [2], with Mus musculus [3], in the data set on Mus musculus [4], in the data set on T-cell [5], in the data set on T-cell [7] and with T-cell [13] was Active. For the same molecule, the result with T-cell [14], with Mus musculus [15], with Mus musculus [16], with Mus musculus [17] and with Mus musculus [18] was Active.
Consider `COc1ccc(C(=O)N2CCc3cc(OC)c(O)c4c3C2Cc2cc(O)c(OC)cc2-4)cc1` (configuration not stated), for which the Activity entry in the data set on EL4 is recorded as “Non-Toxic”.
Same read-out and setting: for `COc1cc2c(cc1O)CC1c3c(cc(OC)c(O)c3-2)CCN1C(=O)c1ccc(C)cc1` (configuration not stated) the value was “Non-Toxic”; for `COc1cc2c(cc1O)CC1c3c(cc(OC)c(O)c3-2)CCN1C(=O)c1ccccc1` (configuration not stated), “Non-Toxic”.
Same read-out and setting: for `COc1cc2c(cc1O)CC1c3c(cc(OC)c(O)c3-2)CCN1Cc1cc(C)cc(C)c1` (configuration not stated) the value was “Non-Toxic”.
As for `COc1cc2c(cc1O)CC1c3c(cc(OC)c(O)c3-2)CCN1Cc1ccc([N+](=O)[O-])cc1` (configuration not stated), the Activity entry in the data set with EL4 is listed as “Non-Toxic”.
The same measure, in the same setting: with `COc1cc(CN2CCc3cc(OC)c(O)c4c3C2Cc2cc(O)c(OC)cc2-4)cc(OC)c1` (configuration not stated) the entry was “Non-Toxic”.
For the molecule `CCCC(=O)[O-].[Na+]` [SODIUM BUTYRATE], the Activity entry with EL4 is “Non-Toxic”; in the data set on T-cell [21] it was 32.4%. Also, the result in the data set on T-cell [22], in the data set on T-cell [23] and in the data set on T-cell [24] was Active.
`COc1cc2c(cc1O)CC1c3c(cc(OC)c(O)c3-2)CCN1Cc1ccccc1` (configuration not stated): in the data set with EL4, the Activity result is “Non-Toxic”.
Still for that read-out and setting: for `COc1cc2c(cc1O)CC1c3c(cc(OC)c(O)c3-2)CCN1C(=O)c1ccc(Cl)cc1` (configuration not stated) the value was “Non-Toxic”; for `COc1cc2c(cc1O)CC1c3c(cc(OC)c(O)c3-2)CCN1C(=O)c1ccc([N+](=O)[O-])cc1` (configuration not stated), “Non-Toxic”.
Same read-out and setting: with `COc1cc2c(cc1O)CC1c3c(cc(OC)c(O)c3-2)CCN1Cc1ccc(F)cc1` (configuration not stated) the entry was “Non-Toxic”.
Take `COc1cc2c(cc1O)CC1c3c(cc(OC)c(O)c3-2)CCN1Cc1ccc(Cl)cc1` (configuration not stated): the Activity entry with EL4 is reported as “Non-Toxic”. Further, in the data set with T-cell [25], the outcome was inactive. In addition, the result with T-cell [26] was Active.
For `COc1cc2c(cc1O)CC1c3c(cc(OC)c(O)c3-2)CCN1C(=O)c1cc(OC)c(OC)c(OC)c1` (configuration not stated), in the data set with EL4, the Activity result is “Non-Toxic”.
Same read-out and setting: for `COc1cc2c(cc1O)CC1c3c(cc(OC)c(O)c3-2)CCN1C(=O)c1ccc(F)cc1` (configuration not stated) the value was “Non-Toxic”; for `COc1cccc(CN2CCc3cc(OC)c(O)c4c3C2Cc2cc(O)c(OC)cc2-4)c1` (configuration not stated), “Non-Toxic”.
For the molecule `COc1cc2c(cc1O)CC1c3c(cc(OC)c(O)c3-2)CCN1Cc1ccc(Br)cc1` (configuration not stated), the Activity entry in the data set with EL4 is “Non-Toxic”.
